“Also recorded” adds a separate entry of the source.
Legend:
[1] = Body weight of mice in the dose-response assay; format: in vivo
Protocol: FIG. 10. […] 1,25D (dose of 0.3 μg/kg) and analogues (doses of 0.1, 0.5, 1 and 5 μg/kg) were injected intraperitoneally every 2 days for 21 days. Animals were weighed every two days during treatment. The values were represented as mean±SD in […].
In this experiment, also the weight of the animals was quantified to determine whether there was any modification throughout the treatment.

[2] = Calcaemic effects in mice at 0.3 μg/kg; format: in vivo; details: for Calcaemic activity: blood calcium in percentage over that induced by 1,25D: ip every two days for 21 days, 0.3 μg/kg (table title prints 0.3 mg/kg); for Hypercalcemia (serum calcium versus control): 0.3 μg/Kg ip every 2 days for 21 days
Protocol: FIG. 8. […] 1,25D and the various analogues were injected intraperitoneally every 2 days for 21 days at a dose of 0.3 μg/Kg. After treatment the calcium levels in the serum were evaluated and the values were represented as mean±SD in […].
(§1) Calcium mobilization of analogues was determined in 28 male CD-1 mice (6-8 weeks old). 6 Groups of 4 mice each were established, which mice were intraperitoneally (ip) injected with 0.3 μg/kg weight of each analogue or 1,25D dissolved in sesame oil every two days for 3 weeks. A seventh group of 4 mice treated with the carrier (sesame oil) served as controls. Calcium levels in blood were determined by QuantiChomCalciumAssay Kit (BioAssaySystems, Hayward, Calif., USA). In addition, a dose-response assay was performed to assess the effect of administration of the analogues PG-403 and PG136p and hormone (1,25D) at different doses on calcium levels. This assay was performed in male mice (5 mice per group), and the doses used were: 0.1, 0.5, 1, and 5 μg/kg weight of each analogue or 1,25D, i.p. administered every two days for 21 days. In addition, a control group (mice treated with sesame oil) was used.

[3] = Dose-response assay of serum calcium in mice; format: in vivo
Protocol: FIG. 9. […] 1,25D (dose of 0.3 μg/kg) and analogues (doses of 0.1, 0.5, 1 and 5 μg/kg) were injected intraperitoneally every 2 days for 21 days. After treatment the calcium levels in the serum were evaluated and the values were represented as mean±SD in […].
as §1

[4] = test system: MCF-7 cells; assay: MTT proliferation assay, MCF-7; details: 10^−7 M, 48 hours, 100% control cells
Protocol: Proliferation assay in the MCF-7 cell line of human breast adenocarcinoma. […] The values were plotted in the graphs as mean±SD. As proliferation value, 100% was considered the normal growth of MCF-7 cells treated with the carrier in the control.
(§2) The cells were cultured in 90-mm plates in essential culture medium DMEM, supplemented with 10% bovine foetal serum free of steroid hormones, 100 U/ml penicillin, 100 μg/ml streptomycin and 2 mM non-essential amino acids (L-glutamine) at 37° C. in a humid atmosphere O2/CO2 (95/5%).
Cell proliferation/toxicity in breast cancer lines was assessed by both incorporation assays of 3-(4,5-dimethylthiazol-2-yl)-2,5-difeniltetrazolium (MTT) bromide and cell culture in three dimensions (3D).
(§3) The first is an indirect method for determining living cells, wherein the yellow water soluble MTT is reduced in mitochondria, thus generating a purple insoluble product (formazan). […] After this time, the culture medium was removed and 500 μl of dimethylsulfoxide (DMSO) was added to each well to solubilise the formazan incorporated by the cells.

[5] = test system: MCF-7 cells; assay: 3D cell culture on matrigel (spheroid size), MCF-7; format: cell-based, human; details: for Cell proliferation percentage MCF-7 3D: 10^−7 M, matrigel spheroids, 100% control cells
Protocol: FIG. 7. MCF-7 cells were shown for 10 days on a matrigel bed until they formed a 3D cellular structure. […] After treatment, the spheroids were stained with DAPI (4′,6-diamino-2-phenylindole) for 1 hour and photographed under an inverted microscope with ultraviolet light. The size of these spheroids was measured and the values were represented as mean±SD in relative units. […] Those cells treated with the carrier were considered as the control value.
For 3D cell culture, a cushion of 200 μl of Matrigel (BD Biosciences) was used in each of the wells of multi-well plates of 24 wells. They were incubated at 37° C. for 20 minutes for their solidification and subsequently the cell suspension (5×10^3 cells per 100 μl volume of medium) was loaded onto the matrigel solidified and another incubation at 37° C. was performed for 30 minutes so that the cells penetrated properly on the matrigel base. 500 μl of DMEM medium were added to each well, and the cells were maintained in culture for 10 days. At the end of this time, the cells were started to be treated with each of the 5 analogues used and 1,25D.

[6] = test system: SKOV-3 cells; assay: MTT proliferation assay, SKOV-3; details: 10^−7 M, 48 hours, 100% control cells
Protocol: Proliferation assay in the SKOV-3 cell line of human ovary adenocarcinoma. […] The values were plotted in the graphs as mean±SD. As proliferation value, 100% was considered the normal growth of SKOV-3 cells treated with the carrier in the control.
as §2, §3

[7] = test system: HaCaT cells; assay: MTT proliferation assay, HaCaT; details: 10^−7 M, 48 hours, 100% control cells
Protocol: Proliferation assay in the HaCaT cell line of human keratinocytes. […] The values were plotted in the graphs as mean±SD. As proliferation value, 100% was considered the normal growth of HaCaT cells treated with the carrier in the control.
as §2, §3

[8] = test system: PC-3 cells; assay: MTT proliferation assay, PC-3; details: 10^−7 M, 48 hours, 100% control cells
Protocol: Proliferation assay in the PC-3 cell line of human prostate adenocarcinoma. […] The values were plotted in the graphs as mean±SD. As proliferation value, 100% was considered the normal growth of PC-3 cells treated with the carrier in the control.
as §2, §3

[9] = target: T1, vitamin D receptor (VDR) (Homo sapiens, UniProt P11473); assay: Competitive binding to vitamin D receptor (Polarscreen VDR competitor assay, fluorescence polarisation); details: for Binding to VDR % relative to 1,25D (100%): activity relative to natural hormone 1,25D normalised at 100%; for IC50: competitive displacement, 10^−11 to 10^−5 M
T1 construct: purchased Invitrogen
T1 sequence (P11473 1-427): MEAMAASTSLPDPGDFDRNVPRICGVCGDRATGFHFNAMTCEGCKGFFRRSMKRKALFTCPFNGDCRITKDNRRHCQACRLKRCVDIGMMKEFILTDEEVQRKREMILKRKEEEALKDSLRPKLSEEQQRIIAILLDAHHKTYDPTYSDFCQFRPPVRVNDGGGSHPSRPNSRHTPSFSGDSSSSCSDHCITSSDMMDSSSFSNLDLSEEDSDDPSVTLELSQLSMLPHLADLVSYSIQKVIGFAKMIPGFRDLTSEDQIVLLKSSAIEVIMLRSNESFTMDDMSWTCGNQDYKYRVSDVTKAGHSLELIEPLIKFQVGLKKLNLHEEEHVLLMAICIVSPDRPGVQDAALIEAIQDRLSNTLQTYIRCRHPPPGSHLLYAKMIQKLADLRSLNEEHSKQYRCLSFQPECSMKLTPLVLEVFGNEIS
Protocol: FIG. 1. […] The values represent the mean of at least two experiments.
Polarised fluorescence was determined in 384-well black plates for 200 ms/well using a Mithras LB 940 device (Berthold Technologies).

[10] = test system: 24-hydroxylase promoter, CYP24A1 (pCYP24A1-Luc); assay: Transactivation reporter assay (pCYP24A1-Luc) in MCF-7 cells; details: for EC50: Homo sapiens, MCF7, 24 h, read-out: Transcriptional activity EC50; for Transcriptional activity % relative to 1,25D (100%): MCF-7 cells, pCYP24A1-Luc
Protocol: MCF-7 cells were transfected with the reporter vector of 24-hydroxylase (pCYP24A1-Luc vector) for 24 hours. […] The experiments were performed at least twice. The error bars represent the standard deviation (SD).

Structure (SMILES) | Calcaemic activity: blood calcium in percentage over that induced by 1,25D [2] [%] | Hypercalcemia (serum calcium versus control) [2] | Binding to VDR % relative to 1,25D (100%) [9] [%] | IC50 [9] [nM] | EC50 [10] [nM] | Body weight, 1,25D ([1]; mice, 0.5 μg/kg weight ip every two days for 21 days) | Blood calcium ([2]; 0.3 μg/kg ip every two days for 3 weeks, carrier 11.9±0.7) [mg/dL] | Serum calcium versus controls, 1,25D ([3]; 0.5 μg/kg weight ip every two days for 21 days) | Cell proliferation percentage MCF-7 2D [4] [%] | Cell proliferation percentage MCF-7 3D [5] [%] | Cell proliferation percentage SKOV-3 2D [6] [%] | Cell proliferation percentage HaCaT 2D [7] [%] | Cell proliferation percentage PC-3 2D [8] [%] | Transcriptional activity % relative to 1,25D (100%) [10] [%] | Body weight versus control animals, analogues ([1]; mice, 0.1, 0.5, 1 and 5 μg/kg ip every 2 days for 21 days) | Three-dimensional growth of MCF-7 spheroids (in words) ([5]; 10^−7 M for 7 days) | Serum calcium versus control animals (placebo) ([3]; 5 μg/kg weight ip every two days for 21 days) | Serum calcium versus controls, analogues ([3]; doses 0.1, 0.5, 1 and 5 μg/kg ip every 2 days for 21 days)
C=C1/C(=C\C=C2/CCC[C@]3(C)[C@@H]([C@H](C)CCCC(C)(C)O)CC[C@@H]23)C[C@@H](O)C[C@@H]1O [1,25D, 1,25-dihydroxyvitamin D3, reference compound] | 100 |  |  |  |  | produced a significant decrease in the weight of the animals | 14.7 ± 0.58 | induces a significant increase in serum calcium |  |  |  |  |  |  |  |  |  | 
C=C1/C(=C\C=C(/CCCC)c2cccc(CCCCCC(C)(C)O)c2)C[C@@H](O)C[C@@H]1O [PG-128, (1R,3S,Z)-5-((E)-3-(3-(6-hydroxy-6-methylheptyl)phenyl)hept-2-enyliden)-4-methylenecyclohexane-1,3-diol] | 34 | does not produce hypercalcemia | 12 | 13.6 | 10 |  |  |  | 74 | 84 | 81 | 71 | 84 | 20 |  |  |  | 
C=C1/C(=C\C=C(/CCC)c2cccc(CCCCCC(C)(C)O)c2)C[C@@H](O)C[C@@H]1O [PG-152, (1R,3S,Z)-5-((E)-3-(3-(6-hydroxy-6-methylheptyl)phenyl)hex-2-enyliden)-4-methylenecyclohexane-1,3-diol] | 41 | does not produce hypercalcemia | 10 | 17.6 | 9.27 |  |  |  | 69 | 74 | 82 | 71 | 83 | 21 |  |  |  | 
C=C1/C(=C\C=C(/CCCCCC(C)(C)O)c2cccc(CCCCCC(C)(C)O)c2)C[C@@H](O)C[C@@H]1O [PG-385, (1R,3S,Z)-5-((E)-9-hydroxy-3-(3-(6-hydroxy-6-methylheptyl)phenyl)-9-methyldec-2-enyliden)-4-methylenecyclohexane-1,3-diol] | 9 | does not produce hypercalcemia |  |  | 5.6 |  |  |  | 69 |  |  |  |  | 35 |  |  |  | 
C=C1/C(=C\C=C\c2cc(CCCCCC(C)(C)O)cc(CCCCCC(C)(C)O)c2)C[C@@H](O)C[C@@H]1O [PG-433, (1R,3S,Z)-5-((E)-3-(3.5-(6-hydroxy-6-methylheptyl)phenyl)allyliden)-4-methylenecyclohexane-1,3-diol] | 8 | does not produce hypercalcemia |  |  | 2.95 |  |  |  | 69 |  |  |  |  | 67 |  |  |  | 

More lines, in order of falling EC50 [10], values ahead:

Calcaemic activity: blood calcium in percentage over that induced by 1,25D [2] [%] | Hypercalcemia (serum calcium versus control) [2] | Binding to VDR % relative to 1,25D (100%) [9] [%] | IC50 [9] [nM] | EC50 [10] [nM] | Structure (SMILES) | Body weight, 1,25D ([1]; mice, 0.5 μg/kg weight ip every two days for 21 days) | Blood calcium ([2]; 0.3 μg/kg ip every two days for 3 weeks, carrier 11.9±0.7) [mg/dL] | Serum calcium versus controls, 1,25D ([3]; 0.5 μg/kg weight ip every two days for 21 days) | Cell proliferation percentage MCF-7 2D [4] [%] | Cell proliferation percentage MCF-7 3D [5] [%] | Cell proliferation percentage SKOV-3 2D [6] [%] | Cell proliferation percentage HaCaT 2D [7] [%] | Cell proliferation percentage PC-3 2D [8] [%] | Transcriptional activity % relative to 1,25D (100%) [10] [%] | Body weight versus control animals, analogues ([1]; mice, 0.1, 0.5, 1 and 5 μg/kg ip every 2 days for 21 days) | Three-dimensional growth of MCF-7 spheroids (in words) ([5]; 10^−7 M for 7 days) | Serum calcium versus control animals (placebo) ([3]; 5 μg/kg weight ip every two days for 21 days) | Serum calcium versus controls, analogues ([3]; doses 0.1, 0.5, 1 and 5 μg/kg ip every 2 days for 21 days)
0 | does not produce hypercalcemia | 7 | 23.5 | 34.6 | C=C1/C(=C\C=C(/CCCCCCC)c2cccc(CCCCCC(C)(C)O)c2)C[C@@H](O)C[C@@H]1O [PG-403, (1R,3S,Z)-5-((E)-3-(3-(6-hydroxy-6-methylheptyl)phenyl)dec-2-enyliden)-4-methylenecyclohexane-1,3-diol] |  |  |  | 69 | 55 | 83 | 71 | 79 | 6 | does not change the body weight; also recorded: did not significantly affect the body weight | inhibit the three-dimensional growth, similarly to 1,25D | did not significantly raise serum calcium | does not produce hypercalcemia; also recorded: None of the two analogues tested (PG136p and PG-403) induces increased serum calcium
0 | does not produce hypercalcemia | 9 | 18.4 | 11.4 | C=C1/C(=C\C=C(/CCCCCC)c2cccc(CCCCCC(C)(C)O)c2)C[C@@H](O)C[C@@H]1O [PG-156, (1R,3S,Z)-5-((E)-3-(3-(6-hydroxy-6-methylheptyl)phenyl)non-2-enyliden)-4-methylenecyclohexane-1,3-diol] |  |  |  | 78 | 79 | 76 | 74 | 80 | 17 |  |  |  | 
